These results are taken from patent EP2678315B1, “(Pyridin-4-yl)benzylamides as allosteric modulators of alpha 7 nAChR” (Janssen Pharmaceutica, N.V., priority 2011, dated 2012).

Where two headings read alike, the source gives them in different places.

The target in test [1] is T1, human alpha 7-wt nAChR (Homo sapiens, UniProt P36544).
T1 construct: expressed in transfected cells
Nature of the test: Patch-clamp current recording (whole-cell voltage-clamp, GH4C1 cells). The class given is cell-based. Also on record: key: Type 0 compounds minimally change the effect size of the current elicited by 1 mM choline.; Type 1 compounds enhance the effect size of the current elicited by 1 mM choline but minimally alter the kinetics of the receptor.; Type 2 compounds enhance the effect size of the current elicited by 1 mM choline while reducing the rate and/or the extent of desensitization.; Type 3 compounds enhance the effect size of the current elicited by 1 mM choline. When tested at higher concentrations up to 10 µM they completely inhibit desensitization; Type 4 compounds allow for an initial desensitization of the receptor followed by a re-opening of the receptor during agonist application. The note with it: current elicited by 1 mM choline. The protocol:
The compounds of the present invention are classified as type 1-4, based on qualitative kinetic properties, as determined by whole-cell voltage-clamp recordings. This classification is based on the effect of an alpha 7 PAM compound, as described hereinbefore, on the signal elicited by an agonist application. In particular, said agonist is choline at a concentration of 1mM. In a preferred experimental setting, said alpha 7 PAM compound and choline are simultaneously applied to the cell, as described hereinafter. Desensitization is defined as the closure of the receptor upon activation during the application of the agonist in whole-cell voltage-clamp electrophysiology measurements seen as the reduction of the […] current after initial activation by the agonist.
The definition of the PAM types 1-4 is described hereinafter: Type 0 compounds minimally change the effect size of the current elicited by 1 mM choline. Type 1 compounds enhance the effect size of the current elicited by 1 mM choline but minimally alter the kinetics of the receptor. In particular, the rate and the extent of desensitization and of deactivation of the receptor elicited by the agonist is not affected. The compound-modulated response to 1 mM choline, therefore, is close to a linear scaling of the 1 mM choline response in absence of the alpha 7 PAM compound: Type 2 compounds enhance the effect size of the current elicited by 1 mM choline while reducing the rate and/or the extent of desensitization. Deactivation of the receptor is generally unaffected. Type 3 compounds enhance the effect size of the current elicited by 1 mM choline. […] Deactivation of the receptor may be slowed down. Type 4 compounds allow for an initial desensitization of the receptor followed by a re-opening of the receptor during agonist application. At low-potency concentrations of the alpha 7 PAM compound, the agonist-induced activation, which is followed by desensitization, can still be separated from the compound-induced re-opening as an initial inward current-maximum. At higher potency concentrations of the alpha 7 PAM compound, the re-opening occurs faster than the closure due to desensitization so that the initial current-maximum disappears.
A compound was considered to have interesting PAM-like activity when the potentiation of the peak current was at least 200% compared to the control choline response (= 100%). Such compounds are classified as belonging to a particular PAM type in the Experimental Part. Compounds not meeting the condition are not classified as belonging to a particular PAM-type.
The compounds also have a potentiating effect on the response to choline when measured by whole-cell patch clamp electrophysiology in GH4C1 cells stably over-expressing the human wild-type alpha 7 receptor.
Example D.2 : Patch-clamp current recording
Patch-clamp recording from mammalian cells has provided a powerful means of assessing the function of membrane-bound proteins thought to be subunits of ligand-gated ion channels. Activation of such proteins by endogenous or exogenous ligands cause opening of a pore associated with the receptor through which ions flow down their electrochemical gradient. In the case of the human alpha 7-wt nAChR-expressing GH4C1 recombinant cell line the preferential permeability to calcium of this receptor means that calcium flows into the cell upon activation by ACh, choline and other nicotinic ligands giving rise to a calcium current. Since this receptor rapidly desensitizes in the presence of agonist it is important that an application system is used which is capable of very rapid switching of solutions (< 100 ms) to prevent partial or full desensitisation of receptor responses coincident with the time of agonist application. Consequently, a second convenient technique to assess the enhancement of nicotinic efficacy is a patch-clamp recording from human alpha 7-wt nAChR-expressing GH4C1 cells coupled with a rapid-application system. […]

In test [2] the target is T1, human alpha 7-wt nAChR. As to the kind of experiment: Ca2+ flux imaging (FDSS) (protocol B). The note with it: for Emax: read-out: % Efficacy. The class given is cell-based. The method, boiled down: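 Fluo-4AM-loaded (2 µM) cells expressing human α7-wt nAChR in HEPES-HBSS with 5 mM CaCl2. Compounds (0.01–30 µM) were added, possibly 10 min before, with choline 100 µM, and peak fluorescence was monitored by FDSS. Potentiation was relative to the choline response, set as 100%; EC50 came from sigmoidal curves.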
Background: A change in cytosolic calcium serves as a functional read-out for many receptors and channels.

The mark [3] stands for this setting: Ca2+ assay as described in D.1, read-out: pEC50 (converted).

T1 sequence (P36544 23-502): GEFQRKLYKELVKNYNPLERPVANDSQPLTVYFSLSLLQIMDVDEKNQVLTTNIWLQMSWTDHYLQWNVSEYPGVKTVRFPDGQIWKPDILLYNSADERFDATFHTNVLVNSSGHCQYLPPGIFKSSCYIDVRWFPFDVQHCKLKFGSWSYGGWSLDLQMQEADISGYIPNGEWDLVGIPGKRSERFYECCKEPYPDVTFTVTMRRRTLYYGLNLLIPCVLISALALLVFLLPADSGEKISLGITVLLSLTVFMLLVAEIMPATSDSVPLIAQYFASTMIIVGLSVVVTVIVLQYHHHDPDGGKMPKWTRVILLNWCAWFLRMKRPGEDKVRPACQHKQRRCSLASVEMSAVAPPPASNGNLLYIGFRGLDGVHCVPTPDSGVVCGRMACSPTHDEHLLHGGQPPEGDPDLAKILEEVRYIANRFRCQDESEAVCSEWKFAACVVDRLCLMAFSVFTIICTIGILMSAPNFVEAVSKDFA

In the case of `Cc1cc(-c2ccc(N3C[C@@H](C)O[C@@H](C)C3)c(CNC(=O)c3conc3C)c2)cc(C)n1` [Compound 136], the PAM type in test [1] was 3. In addition, in test [2] (setting [3]), the EC50 is 129 nM.

On to `Cc1cc(-c2c(F)cc(N3C[C@@H](C)O[C@@H](C)C3)cc2CNC(=O)C(C)C)ccn1` [Compound 89], for which, in test [1], the PAM type is listed as 2. In test [2] (setting [3]), the EC50 was 72.4 nM.

Regarding `Cc1cc(-c2c(F)cc(N3CCO[C@@H](C(F)(F)F)C3)cc2CNC(=O)c2conc2C)cc(C)n1` [Compound 103], the PAM type in test [1] worked out at 3. Further, the EC50 in test [2] (setting [3]) was 16.6 nM. The Emax in test [2] came to 796%.

As to `Cc1cc(-c2ccc(N3C[C@@H](C)O[C@@H](C)C3)cc2CNC(=O)c2cc(C)on2)cc(C)n1` [Compound 3], in test [1], the PAM type is 1. Also, in test [2], the EC50 was 457 nM.

Take `Cc1cc(-c2cc(F)c(N3C[C@@H](C)O[C@@H](C)C3)cc2CNC(=O)c2cc(C)on2)cc(C)n1` [Compound 127]: the PAM type in test [1] came out at 1. For the same molecule, the EC50 in test [2] (setting [3]) was 550 nM. Moreover, the Emax in test [2] worked out at 554%.

For `Cc1cc(-c2c(F)cc(N3CCO[C@H](C(F)(F)F)C3)cc2CNC(=O)CC(C)C)cc(C)n1` [Compound 110], the PAM type in test [1] was determined as 3. The EC50 in test [2] (setting [3]) is 5.01 nM. Moreover, the Emax in test [2] was 384%.

Consider `Cc1cc(-c2c(F)cc(N3C[C@@H](C)O[C@@H](C)C3)cc2CNC(=O)c2conc2C)ccn1` [Compound 91], for which the PAM type in test [1] is recorded as 2. For the same molecule, in test [2] (setting [3]), the EC50 was 61.7 nM.

Regarding `Cc1cc(-c2c(F)cc(N3CCO[C@@H](C(F)(F)F)C3)cc2CNC(=O)C(C)C)cc(C)n1` [Compound 99], the PAM type in test [1] was determined as 3. Also, in test [2] (setting [3]), the EC50 was 9.77 nM. Also, in test [2], the Emax turned out to be 292%.

As for `Cc1cc(-c2cc(F)c(N3C[C@@H](C)O[C@@H](C)C3)cc2CNC(=O)CC2CC2)cc(C)n1` [Compound 125], the PAM type in test [1] stood at 2. For the same molecule, the EC50 in test [2] (setting [3]) was 263 nM. The Emax in test [2] stood at 451%.

As for `Cc1cc(-c2c(F)cc(N3C[C@@H](C)O[C@@H](C)C3)c(F)c2CNC(=O)CC2CC2)cc(C)n1` [Compound 124], in test [1], the PAM type came out at 2. The EC50 in test [2] (setting [3]) was 347 nM.

In the case of `Cc1cc(-c2c(F)cc(N3CCO[C@H](C(F)(F)F)C3)cc2CNC(=O)CC2CCC2)cc(C)n1` [Compound 105], the PAM type in test [1] came to 3. In test [2] (setting [3]), the EC50 was 17 nM. Further, the Emax in test [2] is 559%.

For `Cc1cc(-c2c(F)cc(N3CCO[C@@H](C(F)(F)F)C3)cc2CNC(=O)CC2CC2)cc(C)n1` [Compound 104], in test [1], the PAM type was 3. For the same molecule, in test [2] (setting [3]), the EC50 is 9.12 nM.

Regarding `Cc1cc(-c2c(F)cc(N3CCO[C@H](C(F)(F)F)C3)cc2CNC(=O)C(C)C)cc(C)n1` [Compound 107], the PAM type in test [1] is on record as 2. In test [2] (setting [3]), the EC50 is 30.9 nM. The Emax in test [2] worked out at 266%.

As to `Cc1cc(-c2ccc(N3C[C@@H](C)O[C@@H](C)C3)c(CNC(=O)c3cc(C)on3)c2)cc(C)n1` [Compound 133], the PAM type in test [1] was determined as 0. For the same molecule, the EC50 in test [2] (setting [3]) is 50.1 nM.

`Cc1cc(-c2c(F)cc(N3CCOC(C)C3)cc2CNC(=O)CC2CC2)cc(C)n1` (centres unmarked) [Compound 114]: the PAM type in test [1] came out at 3. The EC50 in test [2] (setting [3]) is 158 nM. In test [2], the Emax was determined as 415%.

Regarding `Cc1cc(-c2c(F)cc(N3CCO[C@H](C(F)(F)F)C3)cc2CNC(=O)CC2CC2)cc(C)n1` [Compound 108], in test [1], the PAM type came to 2. The EC50 in test [2] (setting [3]) was 18.6 nM. Besides, the Emax in test [2] amounted to 432%.

Take `Cc1cc(-c2c(F)cc(N3CCO[C@H](C(F)(F)F)C3)cc2CNC(=O)c2cc(C)on2)cc(C)n1` [Compound 111]: the PAM type in test [1] worked out at 1. In addition, the EC50 in test [2] (setting [3]) was 331 nM. For the same molecule, the Emax in test [2] amounted to 550%.
